Experimental data: patent US20120077957A1, “Lactam-Bridged Melanocortin Receptor-Specific Peptides” (PALATIN TECHNOLOGIES, INC., priority 2009, published 2012)
Where two headings read alike, the source gives them in different places. Bridge positions count the residues as written; N and C are the ends. Square brackets hold non-standard residues; d marks the D form. Peptide text beside a SMILES is read from it. Orn = NCCC[C@H](N)C(=O)O

Biological target: T1, human MC4-R (Homo sapiens, UniProt P32245)
T1 construct: expressed in transfected cells; host or cells: HEK293 T-REx (tetracycline-regulated, Invitrogen); cell line from Palatin Technologies with license from the University of Michigan
T1 sequence (P32245 whole entry): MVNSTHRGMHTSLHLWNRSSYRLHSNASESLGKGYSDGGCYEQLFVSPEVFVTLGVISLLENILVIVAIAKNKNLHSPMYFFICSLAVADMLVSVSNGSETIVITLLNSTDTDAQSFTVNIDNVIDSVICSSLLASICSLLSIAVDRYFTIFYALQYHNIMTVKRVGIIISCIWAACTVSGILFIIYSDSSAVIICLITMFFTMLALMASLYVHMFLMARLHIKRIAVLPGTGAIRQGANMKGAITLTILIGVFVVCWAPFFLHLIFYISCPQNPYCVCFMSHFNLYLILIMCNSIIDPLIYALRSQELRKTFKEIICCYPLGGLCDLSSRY
Test: cAMP functional assay in HEK-293 T-REx cells expressing human MC4-R, induced with doxycycline 0.1 ng/mL (low density)
Type: cell-based
Details: for Emax: HEK293-T-REx; for EC50: human MC4-R cAMP assay, read-out: Ec50
Excerpt: A HEK293 cell line transfected with human MC4-R (from Palatin Technologies, US, with license from the University of Michigan) was used. The human MC4-R was introduced to HEK293 by using the T-REx™ System, Invitrogen. The T-REx™ System employs a tetracycline-regulated mammalian expression system that uses regulatory elements from the E. coli Tn10-encoded tetracycline (Tet) resistance operon. By use of the T-REx™ System, expression of the gene of interest, the human MC4-R gene, is repressed in the absence of tetracycline or doxycycline and induced in the presence of tetracycline or doxycycline (see T-REx™ System Manual, published by Invitrogen).
Cells were then counted and volume was adjusted to 5×10^4 cells per 200 μL.
The cells were then dispensed into 96-well plates (BD 353916) in 198 μL (about 5×10^4) cells/well and incubated for 10 minutes at 37° C. The compound to be tested was diluted with DMSO to a final concentration of 1 mM. Serial dilution was prepared in polypropylene removable 12-well library tube strips (VWR cat #83009-682). 120 μL of the 1 mM compound stock was pipetted in the second column on the plate.
2 μL of the standard, [Nle^4, D-Phe^7]alpha-Melanocyte Stimulating Hormone (NDP-α-MSH), or compound was added to the 96-well plate using the Janus robotic system. All assay samples were run in duplicate (i.e. each sample was in two low dox and two high dox plates, respectively). The plates were gently shaken and incubated for 15 minutes at 37° C. The reaction was stopped by adding 15 μL of lysis buffer per well and the plates were shakened for 30 minutes at room temperature.
Agonist stimulation of the MC4-R activates adenylate cyclase, which is an enzyme that catalyses the formation 3′,5′-cyclic adenosine monophosphate (cAMP) from adenosine triphosphate (ATP). […] Fluoresence ratios were then calculated as described in the CisBio HTRF kit, with GraphPad Prism software used to plot the change in fluorescence percent values versus cAMP concentration using the variable slope dose response curve and, based on calculated cAMP concentrations, to determine EC50 and Emax values. […]

[1] = maximal cAMP stimulation, NDP-α-MSH = 100%, doxycycline 0.1 ng/mL, averages of all comparable assays, read-out: Emax
[2] = doxycycline 0.1 ng/mL, averages of all comparable assays

| Structure (SMILES) | Emax [1] [%] | EC50 [2] [nM] | Emax [%] |
| --- | --- | --- | --- |
| CC(=O)N[C@@H](CCCNC(=N)N)C(=O)N[C@H]1CC(=O)NCCCC[C@@H](C(=O)O)NC(=O)[C@H](Cc2c[nH]c3ccccc23)NC(=O)[C@H](CCCNC(=N)N)NC(=O)[C@@H](Cc2ccccc2)NC(=O)[C@H](CCCNC(=N)N)NC1=O [reference compound] | 75 |  |  |
| CC(=O)N[C@H]1CCC(=O)NCCC[C@@H](C(N)=O)NC(=O)[C@H](Cc2c[nH]c3ccccc23)NC(=O)[C@H](CCCNC(=N)N)NC(=O)[C@@H](Cc2ccccc2)NC(=O)[C@H](CCC(N)=O)NC1=O [No. 21, Ac-cyclo(Glu-Gln-D-Phe-Arg-Trp-Orn)-NH2] (Ac-EQ[dF]RW[Orn]-NH2; lactam 1-6) | 49 | 26 |  |
| CC(=O)N[C@@H](CCCNC(=N)N)C(=O)N[C@H]1CCCNC(=O)CC[C@@H](C(=O)O)NC(=O)[C@H](Cc2c[nH]c3ccccc23)NC(=O)[C@H](CCCNC(=N)N)NC(=O)[C@@H](Cc2ccccc2)NC(=O)[C@H](CCN)NC1=O [No. 42, Ac-Arg-cyclo(Orn-Dab-D-Phe-Arg-Trp-Glu)-OH] | 100 |  |  |
| CC(=O)N[C@@H](CCCNC(=N)N)C(=O)N[C@H]1CCC(=O)NCCC[C@@H](C(=O)O)NC(=O)[C@H](Cc2c[nH]c3ccccc23)NC(=O)[C@H](CCCNC(=N)N)NC(=O)[C@@H](Cc2ccccc2)NC(=O)[C@H](CCCNC(=N)N)NC1=O [No. 9, Ac-Arg-cyclo(Glu-Arg-D-Phe-Arg-Trp-Orn)-OH] | 82 | 2 |  |
| CC(=O)N[C@@H](CCCNC(=N)N)C(=O)N[C@H]1CCC(=O)NCCC[C@@H](C(N)=O)NC(=O)[C@H](Cc2c[nH]c3ccccc23)NC(=O)[C@H](CCCNC(=N)N)NC(=O)[C@@H](Cc2ccccc2)NC(=O)[C@@H]2C[C@@H](O)CN2C1=O [No. 14, Ac-Arg-cyclo(Glu-Hyp-D-Phe-Arg-Trp-Orn)-NH2] | 104 |  |  |
| CCCC[C@H](NC(C)=O)C(=O)N[C@H]1CC(=O)NCCCC[C@@H](C(=O)O)NC(=O)[C@H](Cc2c[nH]c3ccccc23)NC(=O)[C@H](CCCNC(=N)N)NC(=O)[C@@H](Cc2ccccc2)NC(=O)[C@H](Cc2c[nH]cn2)NC1=O [Ac-Nle-cyclo(Asp-His-D-Phe-Arg-Trp-Lys)-OH, reference compound] |  |  | 81 |
| CC(=O)N[C@@H](CCCNC(=N)N)C(=O)N[C@H]1CCC(=O)NCCC[C@@H](C(=O)O)NC(=O)[C@H](Cc2c[nH]c3ccccc23)NC(=O)[C@H](CCCNC(=N)N)NC(=O)[C@@H](Cc2ccccc2)NC(=O)[C@H](CCN)NC1=O [No. 5, Ac-Arg-cyclo(Glu-Dab-D-Phe-Arg-Trp-Orn)-OH] | 94 | 2 |  |
| CC(=O)N[C@@H](CCCNC(=N)N)C(=O)N[C@H]1CCC(=O)NCCC[C@@H](C(N)=O)NC(=O)[C@H](Cc2c[nH]c3ccccc23)NC(=O)[C@H](CCCNC(=N)N)NC(=O)[C@@H](Cc2ccccc2)NC(=O)[C@H](CCCNC(=N)N)NC1=O [No. 10, Ac-Arg-cyclo(Glu-Arg-D-Phe-Arg-Trp-Orn)-NH2] | 98 |  |  |
| CC(=O)N[C@@H](CCCNC(=N)N)C(=O)N[C@H]1CCC(=O)NCCC[C@@H](C(=O)NC2CC2)NC(=O)[C@H](Cc2c[nH]c3ccccc23)NC(=O)[C@H](CCCNC(=N)N)NC(=O)[C@@H](Cc2ccccc2)NC(=O)[C@H](CCC(N)=O)NC1=O [No. 19, Ac-Arg-cyclo(Glu-Gln-D-Phe-Arg-Trp-Orn)-NH-cycProp] | 91 | 1 |  |
| CC(=O)N[C@@H](CCCNC(=N)N)C(=O)N[C@H]1CCC(=O)NCCC[C@@H](C(=O)O)NC(=O)[C@H](Cc2c[nH]c3ccccc23)NC(=O)[C@H](CCCNC(=N)N)NC(=O)[C@@H](Cc2ccccc2)NC(=O)[C@H](CCC(N)=O)NC1=O [No. 11, Ac-Arg-cyclo(Glu-Gln-D-Phe-Arg-Trp-Orn)-OH] | 81 |  |  |
| CC(=O)N[C@@H](CCCNC(=N)N)C(=O)N[C@H]1CCCNC(=O)CC[C@@H](C(N)=O)NC(=O)[C@H](Cc2c[nH]c3ccccc23)NC(=O)[C@H](CCCNC(=N)N)NC(=O)[C@@H](Cc2ccccc2)NC(=O)[C@H](CC(N)=O)NC1=O [No. 46, Ac-Arg-cyclo(Orn-Asn-D-Phe-Arg-Trp-Glu)-NH2] | 88 |  |  |
| CC(=O)N[C@@H](CCCNC(=N)N)C(=O)N[C@H]1CCC(=O)NCCC[C@@H](C(N)=O)NC(=O)[C@H](Cc2c[nH]c3ccccc23)NC(=O)[C@H](CCCNC(=N)N)NC(=O)[C@@H](Cc2ccccc2)NC(=O)[C@H](CCCNC(N)=O)NC1=O [No. 15, Ac-Arg-cyclo(Glu-Cit-D-Phe-Arg-Trp-Orn)-NH2] | 87 |  |  |

More lines, main results first:

| Emax [1] [%] | EC50 [2] [nM] | Structure (SMILES) | Emax [%] |
| --- | --- | --- | --- |
| 91 |  | CC(=O)N[C@@H](CCCNC(=N)N)C(=O)N[C@H]1CC(=O)NCCCC[C@@H](C(=O)O)NC(=O)[C@H](Cc2c[nH]c3ccccc23)NC(=O)[C@H](CCCNC(=N)N)NC(=O)[C@@H](Cc2ccccc2)NC(=O)[C@H](CCN)NC1=O [reference compound] |  |
| 97 | 8 | CC(=O)N[C@@H](CCCNC(=N)N)C(=O)N[C@H]1CC(=O)NCCCC[C@@H](C(N)=O)NC(=O)[C@H](Cc2c[nH]c3ccccc23)NC(=O)[C@H](CCCNC(=N)N)NC(=O)[C@@H](Cc2ccccc2)NC(=O)[C@H](CCCCN)NC1=O [reference compound] (Ac-RDK[dF]RWK-NH2; lactam 2-7) |  |
| 68 |  | CC(=O)N[C@@H](CCCNC(=N)N)C(=O)N[C@H]1CC(=O)NCCCC[C@@H](C(N)=O)NC(=O)[C@H](Cc2c[nH]c3ccccc23)NC(=O)[C@H](CCCNC(=N)N)NC(=O)[C@@H](Cc2ccccc2)NC(=O)[C@H](CCCNC(=N)N)NC1=O [reference compound] |  |
| 73 |  | CC(=O)N[C@@H](CCCNC(=N)N)C(=O)N[C@H]1CC(=O)NCCCC[C@@H](C(=O)O)NC(=O)[C@H](Cc2c[nH]c3ccccc23)NC(=O)[C@H](CCCNC(=N)N)NC(=O)[C@@H](Cc2ccccc2)NC(=O)[C@H](CC(N)=O)NC1=O [reference compound] (Ac-RDN[dF]RWK-OH; lactam 2-7) |  |
| 69 |  | CC(=O)N[C@@H](CCCNC(=N)N)C(=O)N[C@H]1CC(=O)NCCCC[C@@H](C(N)=O)NC(=O)[C@H](Cc2c[nH]c3ccccc23)NC(=O)[C@H](CCCNC(=N)N)NC(=O)[C@@H](Cc2ccccc2)NC(=O)[C@H](CCCNC(N)=O)NC1=O [reference compound] |  |
| 39 |  | CC(=O)N[C@@H](CCCNC(=N)N)C(=O)N[C@H]1CC(=O)NCCCC[C@@H](C(N)=O)NC(=O)[C@H](Cc2c[nH]c3ccccc23)NC(=O)[C@H](CCCNC(=N)N)NC(=O)[C@@H](Cc2ccccc2)NC(=O)[C@@H]2C[C@@H](O)CN2C1=O [reference compound] |  |
| 83 |  | CC(=O)N[C@@H](CCCNC(=N)N)C(=O)N[C@H]1CC(=O)NCCCC[C@@H](C(N)=O)NC(=O)[C@H](Cc2c[nH]c3ccccc23)NC(=O)[C@H](CCCNC(=N)N)NC(=O)[C@@H](Cc2ccccc2)NC(=O)[C@H](Cc2c[nH]cn2)NC1=O [reference compound] |  |
| 79 | 9 | CC(=O)N[C@@H](CCCNC(=N)N)C(=O)N[C@H]1CC(=O)NCCCC[C@@H](C(=O)NC2CC2)NC(=O)[C@H](Cc2c[nH]c3ccccc23)NC(=O)[C@H](CCCNC(=N)N)NC(=O)[C@@H](Cc2ccccc2)NC(=O)[C@H](CCC(N)=O)NC1=O [reference compound] |  |
| 43 |  | CC(=O)N[C@@H](CCCNC(=N)N)C(=O)N[C@H]1CC(=O)NCCCC[C@@H](C(N)=O)NC(=O)[C@H](Cc2c[nH]c3ccccc23)NC(=O)[C@H](CCCNC(=N)N)NC(=O)[C@@H](Cc2ccccc2)NC(=O)[C@@H]2CCCN2C1=O [reference compound] |  |
